# Results published in patent US20230085307A1, “PYRIDAZINONE COMPOUND AND HERBICIDE” (NISSAN CHEMICAL CORPORATION, priority 2019, published 2023).
# Experiments:
# Japanese bulrush [1] = assay: Test Example 1: herbicidal activity, application before weed generation under submerged conditions (Table 16, symbol B); format: in vivo, Japanese bulrush (Schoenoplectus juncoides)
# How it was run: (§1)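 Submerged Wagner pots (alluvial soil, 4 cm water) sown with weed seeds and planted with 2.5-leaf rice seedlings; emulsifiable concentrate diluted in water applied to water surface on sowing day. Held in greenhouse at 25-30 °C; injury scored 0-5 by herbicidal rate after three weeks.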
# oval-leafed pondweed [2] = assay: Test Example 1: herbicidal activity, application before weed generation under submerged conditions (Table 16, symbol C); format: in vivo, oval-leafed pondweed (Monochoria vaginalis)
# How it was run: as §1
# Japanese bulrush [3] = assay: Test Example 2: herbicidal activity, application during weed generation under submerged conditions (Table 17, symbol B); format: in vivo, Japanese bulrush (Schoenoplectus juncoides); conditions: application during weed generation, submerged conditions
# How it was run: (§2)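 Mixed weed seedlings in alluvial soil under a 4 cm water layer, greenhouse-grown at 25–30° C. Compound given as a diluted emulsion into the floodwater at the 1–2 leaf stage; response graded after three weeks.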
# oval-leafed pondweed [4] = assay: Test Example 2: herbicidal activity, application during weed generation under submerged conditions (Table 17, symbol C); format: in vivo, oval-leafed pondweed (Monochoria vaginalis); conditions: application during weed generation, submerged conditions
# How it was run: as §2
# rice flat sedge = assay: Test Example 3: herbicidal effect by foliage application, Wagner pot (Table 18, symbol E); format: in vivo, rice flat sedge (Cyperus iria)
# How it was run: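 Plants were sown in alluvial soil held under 0.1–0.5 cm standing water and grown 14 days in a greenhouse at 25–30 °C. An emulsifiable formulation, water-diluted to the set dose, was then sprayed onto the foliage, and effects were scored three weeks later using previously defined criteria.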
# green foxtail [5] = assay: Test Example 4: herbicidal effect by soil treatment (Table 19, symbol G); format: in vivo, green foxtail (Setaria viridis)
# How it was run: (§3)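 Soil-surface application: an emulsion agent diluted with water to the predetermined dose is sprayed uniformly over seeds lying under roughly 1.5 cm of sterilized diluvial soil. Boxes stay in a greenhouse at 25° C. to 30° C. Three weeks later, each species is graded on previously defined criteria.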
# wild oat = assay: Test Example 4: herbicidal effect by soil treatment (Table 19, symbol I); format: in vivo, wild oat (Avena fatua)
# How it was run: as §3
# Italian ryegrass = assay: Test Example 4: herbicidal effect by soil treatment (Table 19, symbol K); format: in vivo, Italian ryegrass (Lolium multiflorum)
# How it was run: as §3
# windgrass [6] = assay: Test Example 4: herbicidal effect by soil treatment (Table 19, symbol L); format: in vivo, windgrass (Apera spica-venti)
# How it was run: as §3
# velvetleaf = assay: Test Example 4: herbicidal effect by soil treatment (Table 19, symbol M); format: in vivo, velvetleaf (Abutilon theophrasti)
# How it was run: as §3
# persian speedwell = assay: Test Example 4: herbicidal effect by soil treatment (Table 19, symbol R); format: in vivo, Persian speedwell (Veronica persica)
# How it was run: as §3
# southern crabgrass = assay: Test Example 5: herbicidal effect by foliage application, plastic box (Table 20, symbol F); format: in vivo, southern crabgrass (Digitaria ciliaris); conditions: foliage application, 3 weeks after application
# How it was run: (§4)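 Sow seeds spot-wise in sterilized diluvial soil; cover with ~1.5 cm soil. Grow 14 days in greenhouse, 25° C. to 30° C. Spray foliage with emulsion diluted to predetermined amount. Rate effect after 3 weeks.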
# green foxtail [7] = assay: Test Example 5: herbicidal effect by foliage application, plastic box (Table 20, symbol G); format: in vivo, green foxtail (Setaria viridis); conditions: foliage application, 3 weeks after application
# How it was run: as §4
# windgrass [8] = assay: Test Example 5: herbicidal effect by foliage application, plastic box (Table 20, symbol L); format: in vivo, windgrass (Apera spica-venti); conditions: foliage application, 3 weeks after application
# How it was run: as §4
# lambsquarters = assay: Test Example 5: herbicidal effect by foliage application, plastic box (Table 20, symbol O); format: in vivo, lambsquarters (Chenopodium album); conditions: foliage application, 3 weeks after application
# How it was run: as §4
SMILES,Herbicidal effect on B: Japanese bulrush (grade 0-5) (Japanese bulrush [1]; 320 g/ha applied herbicide),Herbicidal effect on C: oval-leafed pondweed (grade 0-5) (oval-leafed pondweed [2]; 320 g/ha applied herbicide),"herbicidal effect rating, B: Japanese bulrush (Japanese bulrush [3]; AAH 320 g/ha)","herbicidal effect rating, C: oval-leafed pondweed (oval-leafed pondweed [4]; AAH 320 g/ha)","herbicidal effect on E (rice flat sedge), rating 0-5 (rice flat sedge; 320 g/ha)","herbicidal effect rating, G: green foxtail (green foxtail [5]; 320 g/ha)","herbicidal effect rating, I: wild oat (wild oat; 320 g/ha)","herbicidal effect rating, K: Italian ryegrass (Italian ryegrass; 320 g/ha)","herbicidal effect rating, L: windgrass (windgrass [6]; 320 g/ha)","herbicidal effect rating, M: velvetleaf (velvetleaf; 320 g/ha)","herbicidal effect rating, R: persian speedwell (persian speedwell; 320 g/ha)",effect on southern crabgrass (F) (southern crabgrass; 320 g/ha),effect on green foxtail (G) (green foxtail [7]; 320 g/ha),effect on windgrass (L) (windgrass [8]; 320 g/ha),effect on lambsquarters (O) (lambsquarters; 320 g/ha),further results
CCCC(=O)Oc1c(C)nn(C)c(=O)c1-c1c(-c2ccccc2OCC)sc2ccc(F)cc12 [2-029],–,–,–,–,–,–,–,–,–,–,–,–,–,–,–,"Herbicidal effect on B: Japanese bulrush (grade 0-5) (Japanese bulrush [1]; 266 g/ha applied herbicide): 0 (Herbicidal rate of 5% or less (almost no effect)); Herbicidal effect on C: oval-leafed pondweed (grade 0-5) (oval-leafed pondweed [2]; 266 g/ha applied herbicide): 0 (Herbicidal rate of 5% or less (almost no effect)); herbicidal effect rating, B: Japanese bulrush (Japanese bulrush [3]; AAH 266 g/ha): 2 (Herbicidal rate of 20% or more and less than 40%); herbicidal effect rating, C: oval-leafed pondweed (oval-leafed pondweed [4]; AAH 266 g/ha): 3 (Herbicidal rate of 40% or more and less than 70%); herbicidal effect on E (rice flat sedge), rating 0-5 (rice flat sedge; 266 g/ha): 3 (Herbicidal rate of 40% or more and less than 70%); herbicidal effect rating, G: green foxtail (green foxtail [5]; 266 g/ha): 3 (Herbicidal rate of 40% or more and less than 70%); herbicidal effect rating, I: wild oat (wild oat; 266 g/ha): 3 (Herbicidal rate of 40% or more and less than 70%); herbicidal effect rating, K: Italian ryegrass (Italian ryegrass; 266 g/ha): 0 (Herbicidal rate of 5% or less (almost no effect)); herbicidal effect rating, L: windgrass (windgrass [6]; 266 g/ha): 0 (Herbicidal rate of 5% or less (almost no effect)); herbicidal effect rating, M: velvetleaf (velvetleaf; 266 g/ha): 0 (Herbicidal rate of 5% or less (almost no effect)); herbicidal effect rating, R: persian speedwell (persian speedwell; 266 g/ha): 3 (Herbicidal rate of 40% or more and less than 70%); effect on southern crabgrass (F) (southern crabgrass; 266 g/ha): 4 (Herbicidal rate of 70% or more and less than 90%); effect on green foxtail (G) (green foxtail [7]; 266 g/ha): 4 (Herbicidal rate of 70% or more and less than 90%); effect on windgrass (L) (windgrass [8]; 266 g/ha): 1 (Herbicidal rate of 5% or more and less than 20%); effect on lambsquarters (O) (lambsquarters; 266 g/ha): 3 (Herbicidal rate of 40% or more and less than 70%)"
CCCOc1ccc(-c2sc3ccc(F)cc3c2-c2c(O)c(C)nn(C)c2=O)cc1 [2-032],4 (Herbicidal rate of 70% or more and less than 90%),4 (Herbicidal rate of 70% or more and less than 90%),4 (Herbicidal rate of 70% or more and less than 90%),5 (Herbicidal rate of 90% or more (almost completely withered)),5 (Herbicidal rate of 90% or more (almost completely withered)),3 (Herbicidal rate of 40% or more and less than 70%),0 (Herbicidal rate of 5% or less (almost no effect)),0 (Herbicidal rate of 5% or less (almost no effect)),0 (Herbicidal rate of 5% or less (almost no effect)),5 (Herbicidal rate of 90% or more (almost completely withered)),5 (Herbicidal rate of 90% or more (almost completely withered)),5 (Herbicidal rate of 90% or more (almost completely withered)),5 (Herbicidal rate of 90% or more (almost completely withered)),4 (Herbicidal rate of 70% or more and less than 90%),5 (Herbicidal rate of 90% or more (almost completely withered)),–
Cc1nn(C)c(=O)c(-c2c(-c3ccc(OC(C)C)cc3)sc3ccc(F)cc23)c1O [2-034],4 (Herbicidal rate of 70% or more and less than 90%),2 (Herbicidal rate of 20% or more and less than 40%),3 (Herbicidal rate of 40% or more and less than 70%),3 (Herbicidal rate of 40% or more and less than 70%),5 (Herbicidal rate of 90% or more (almost completely withered)),4 (Herbicidal rate of 70% or more and less than 90%),0 (Herbicidal rate of 5% or less (almost no effect)),1 (Herbicidal rate of 5% or more and less than 20%),0 (Herbicidal rate of 5% or less (almost no effect)),4 (Herbicidal rate of 70% or more and less than 90%),4 (Herbicidal rate of 70% or more and less than 90%),5 (Herbicidal rate of 90% or more (almost completely withered)),5 (Herbicidal rate of 90% or more (almost completely withered)),4 (Herbicidal rate of 70% or more and less than 90%),5 (Herbicidal rate of 90% or more (almost completely withered)),–
CCCCOc1ccc(-c2sc3ccc(F)cc3c2-c2c(O)c(C)nn(C)c2=O)cc1 [2-036],4 (Herbicidal rate of 70% or more and less than 90%),4 (Herbicidal rate of 70% or more and less than 90%),3 (Herbicidal rate of 40% or more and less than 70%),3 (Herbicidal rate of 40% or more and less than 70%),5 (Herbicidal rate of 90% or more (almost completely withered)),0 (Herbicidal rate of 5% or less (almost no effect)),0 (Herbicidal rate of 5% or less (almost no effect)),0 (Herbicidal rate of 5% or less (almost no effect)),0 (Herbicidal rate of 5% or less (almost no effect)),4 (Herbicidal rate of 70% or more and less than 90%),4 (Herbicidal rate of 70% or more and less than 90%),4 (Herbicidal rate of 70% or more and less than 90%),5 (Herbicidal rate of 90% or more (almost completely withered)),4 (Herbicidal rate of 70% or more and less than 90%),5 (Herbicidal rate of 90% or more (almost completely withered)),–
CCCC(=O)Oc1c(C)nn(C)c(=O)c1-c1c(-c2ccc(OC(F)(F)F)cc2)sc2ccc(F)cc12 [2-046],4 (Herbicidal rate of 70% or more and less than 90%),3 (Herbicidal rate of 40% or more and less than 70%),3 (Herbicidal rate of 40% or more and less than 70%),0 (Herbicidal rate of 5% or less (almost no effect)),5 (Herbicidal rate of 90% or more (almost completely withered)),4 (Herbicidal rate of 70% or more and less than 90%),0 (Herbicidal rate of 5% or less (almost no effect)),3 (Herbicidal rate of 40% or more and less than 70%),0 (Herbicidal rate of 5% or less (almost no effect)),3 (Herbicidal rate of 40% or more and less than 70%),5 (Herbicidal rate of 90% or more (almost completely withered)),0 (Herbicidal rate of 5% or less (almost no effect)),5 (Herbicidal rate of 90% or more (almost completely withered)),0 (Herbicidal rate of 5% or less (almost no effect)),5 (Herbicidal rate of 90% or more (almost completely withered)),–
